Laboratory results: patent US8952024B2, “Herbicidal pyrimidone derivatives” (E I du Pont de Nemours and Company, priority 2009, dated 2015)

What was measured:
Assay in all cases: Test B pre-/postemergence plant response
Type in all cases: in vivo
[1] = tested on: wheat (Triticum aestivum)
In short: (§1)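 Ratings reflect visual comparison with untreated controls 13 to 15 days after application, from 0 (no effect) to 100 (complete control). Application was preemergence to seeded loam/sand soil or postemergence to 1- to 4-leaf plants, with compound in a non-phytotoxic, surfactant-containing solvent.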

[2] = tested on: Surinam grass (Brachiaria decumbens); conditions: for Plant response rating, Surinam Grass: Postemergence, scale 0 to 100 (0 no effect, 100 complete control)
In short: as §1

[3] = tested on: morningglory (Ipomoea coccinea)
In short: as §1

[4] = tested on: ragweed (common ragweed, Ambrosia elatior); conditions: for Plant response rating, Ragweed: Postemergence, scale 0 to 100 (0 no effect, 100 complete control)
In short: as §1

[5] = tested on: large crabgrass (Digitaria sanguinalis)
In short: as §1

[6] = tested on: downy bromegrass (Bromus tectorum)
In short: as §1

wild oat (Avena fatua) = tested on: wild oat (Avena fatua)
In short: as §1

[7] = tested on: cocklebur (Xanthium strumarium)
In short: as §1

[8] = tested on: woolly cupgrass (Eriochloa villosa)
In short: as §1

kochia (Kochia scoparia) = tested on: kochia (Kochia scoparia)
In short: as §1

[9] = tested on: Italian ryegrass (Lolium multiflorum); conditions: for Plant response rating, Ryegrass, Italian: Postemergence, scale 0 to 100 (0 no effect, 100 complete control)
In short: as §1

[10] = tested on: blackgrass (Alopecurus myosuroides)
In short: as §1

[11] = tested on: bermudagrass (Cynodon dactylon)
In short: as §1

[12] = 62 g ai/ha, postemergence, 0 is no effect, 100 is complete control, 13 to 15 days
[13] = Postemergence, 125 g ai/ha, scale 0 to 100 (0 no effect, 100 complete control)
[14] = 31 g ai/ha, postemergence, scale 0 to 100, 0 is no effect, 100 is complete control
[15] = Postemergence, 250 g ai/ha, scale 0 to 100 (0 no effect, 100 complete control)

Compound: CCCCn1c(-c2cc(F)cc(F)c2)ncc(C(=O)C2=C(O)CCCC2=O)c1=O [Compound 121]
- Wheat plant response rating (0 to 100 scale) [1, 12]: 45
- Plant response rating, Wheat [1, 13]: 45
- Surinam Grass plant response rating (0 to 100 scale) [2, 12]: 100
- Plant response rating, Surinam Grass ([2]; 125 g ai/ha): 100
- Plant response rating, Surinam Grass ([2]; 250 g ai/ha): 100
- Plant response rating, Morningglory [3, 14]: 5
- Morningglory plant response rating (0 to 100 scale) [3, 12]: 20
- Plant response rating, Morningglory [3, 13]: 25
- Plant response rating, Morningglory [3, 15]: 45
- Ragweed plant response rating (0 to 100 scale) [4, 12]: 85
- Plant response rating, Ragweed ([4]; 125 g ai/ha): 90
- Plant response rating, Ragweed ([4]; 250 g ai/ha): 95
- Plant response rating, Crabgrass, Large [5, 14]: 85
- Crabgrass, Large plant response rating (0 to 100 scale) [5, 12]: 90
- Plant response rating, Crabgrass, Large [5, 13]: 95
- Plant response rating, Crabgrass, Large [5, 15]: 98
- Plant response rating, Bromegrass, Downy [6, 14]: 25
- Bromegrass, Downy plant response rating (0 to 100 scale) [6, 12]: 50
- Plant response rating, Bromegrass, Downy [6, 13]: 80
- Plant response rating, Bromegrass, Downy [6, 15]: 90
- Plant response rating, Oat, Wild (wild oat (Avena fatua); [14]): 60
- Oat, Wild plant response rating (0 to 100 scale) (wild oat (Avena fatua); [12]): 90
- Plant response rating, Oat, Wild (wild oat (Avena fatua); [13]): 98
- Plant response rating, Oat, Wild (wild oat (Avena fatua); [15]): 98
- Plant response rating, Cocklebur [7, 14]: 40
- Cocklebur plant response rating (0 to 100 scale) [7, 12]: 45
- Plant response rating, Cocklebur [7, 13]: 85
- Plant response rating, Cocklebur [7, 15]: 100
- Plant response rating, Cupgrass, Woolly [8, 14]: 95
- Cupgrass, Woolly plant response rating (0 to 100 scale) [8, 12]: 100
- Plant response rating, Cupgrass, Woolly [8, 13]: 100
- Plant response rating, Cupgrass, Woolly [8, 15]: 100
- Plant response rating, Kochia (kochia (Kochia scoparia); [14]): 95
- Kochia plant response rating (0 to 100 scale) (kochia (Kochia scoparia); [12]): 100
- Plant response rating, Kochia (kochia (Kochia scoparia); [15]): 100
- Ryegrass, Italian plant response rating (0 to 100 scale) [9, 12]: 40
- Plant response rating, Ryegrass, Italian ([9]; 125 g ai/ha): 70
- Plant response rating, Ryegrass, Italian ([9]; 250 g ai/ha): 75
- Plant response rating, Blackgrass [10, 14]: 5
- Blackgrass plant response rating (0 to 100 scale) [10, 12]: 40
- Plant response rating, Blackgrass [10, 13]: 40
- Plant response rating, Blackgrass [10, 15]: 60
- Plant response rating, Bermudagrass [11, 14]: 95
- Bermudagrass plant response rating (0 to 100 scale) [11, 12]: 98
- Plant response rating, Bermudagrass [11, 13]: 100
- Plant response rating, Bermudagrass [11, 15]: 100
